In article PMC3376217 (2012):
pIC50: −log10 of the molar value. Read-outs that look alike come from different tables or passages of the source.

Tests used:
[1] = biological target: T1, TOR2 (Saccharomyces cerevisiae, UniProt P32600); assay: IP radiometric kinase assay on PHAS-I; type: biochemical
[2] = biological target: T1, TOR2; assay: IP radiometric kinase assay on PHAS-I; type: biochemical; remark: listed apart in the source

| SMILES | pIC50 [1] | pIC50 [2] |
| --- | --- | --- |
| Nc1ccc(-c2ccc3ncc4ccc(=O)n(-c5ccc(F)c(C(F)(F)F)c5)c4c3c2)cn1 [QL-IX-55] | ~7.30 |  |
| CCC(=O)N1CCN(c2ccc(-n3c(=O)ccc4cnc5ccc(-c6cnc7ccccc7c6)cc5c43)cc2C(F)(F)F)CC1 [Torin1] |  | 6.30 to 6.60 |
